According to ChEMBL document CHEMBL3881525, “Analogs of dehydrophenylahistins and their therapeutic use” (2007):
Values after ≈ are worked out from the molar mass of the structure shown. Active and inactive are the calls of the source. No cut-off for these calls is given here.

Tests used:
Tubulin (Homo sapiens) [1] = biological target: T1, Tubulin (Homo sapiens) (UniProt P68371+Q9H4B7+P0DPH7+P68366+Q13509+Q71U36+P04350+Q3ZCM7+P07437+P68363+Q9BQE3+Q6PEY2+Q13885+Q9BVA1+Q9BUF5); test: Induction of microtubule depolymerization in HUVEC assessed as cell membrane blebbing at 2 uM measured after 30 mins; format: cell-based
Mus musculus = test: Antivascular activity against mouse N202 tumor spheroids expressing H2B-GFP allografted in mouse assessed as inhibition of tumor-induced central vasculature at 5 mg/kg, iv administered on day 12 as infusion for 2 mins measured on day 15 by fluorescence video microscopy; format: functional, organism-based
[2] = Cytotoxicity against human HT-29 cells assessed as reduction in cell viability measured after 48 hrs by resazurin dye-based fluorometric analysis; format: functional; conditions: Homo sapiens, HT-29, 48 h
HUVEC [3] = test: Induction of apoptosis in HUVEC assessed as cell shrinkage; format: functional, cell-based; conditions: Homo sapiens
[4] = Toxicity in mouse allografted with mouse N202 tumor spheroids expressing H2B-GFP assessed as effect on tumor surrounding vasculature in the dorsal skin fold at 10 mg/kg, iv administered on day 12 as infusion for 5 mins measured on day 15; format: organism-based; conditions: in vivo
HUVEC [5] = test: Induction of monolayer permeability in HUVEC measured up to 15 mins; format: functional, cell-based; conditions: Homo sapiens
HUVEC [6] = test: Induction of apoptosis in HUVEC assessed as cell membrane blebbing; format: functional, cell-based; conditions: Homo sapiens
Rattus norvegicus [7] = test: Reduction in blood flow in rat kidney at 15 mg/kg, ip measured after 24 hrs by [125I]iodoantipyrine based method relative to vehicle control; format: ADME, organism-based; conditions: in vivo
MDA-MB-231 = test: Antitumor activity against human MDA-MB-231 cells xenografted in nude mouse assessed as tumor growth inhibition at 7.5 mg/kg, ip administered thrice per day for 5 days in presence of paclitaxel relative to control; format: functional, organism-based
Tubulin (Homo sapiens) [8] = biological target: T1, Tubulin (Homo sapiens); test: Induction of microtubule instability in human MCF7 cells assessed as mean growth rate at IC25 for mitotic block measured after 20 hrs by immunofluorescence analysis; format: cell-based
[9] = Cytotoxicity against human PC3 cells assessed as reduction in cell viability measured after 48 hrs by resazurin dye-based fluorometric analysis; format: functional; conditions: PC-3, 48 h
MCF7 [10] = test: Antimitotic activity in human MCF7 cells assessed as decrease in microtubule polymer formation measured after 20 hrs by immunofluorescence analysis relative to control; format: functional, cell-based
Rattus norvegicus [11] = test: Reduction in blood flow in rat heart at 15 mg/kg, ip measured after 24 hrs by [125I]iodoantipyrine based method relative to vehicle control; format: ADME, organism-based; conditions: in vivo
[12] = Antifungal activity against Candida glabrata measured after 48 hrs by broth dilution method; format: functional; conditions: Nakaseomyces glabratus
Rattus norvegicus [13] = test: Effect on blood flow in rat brain at 15 mg/kg, ip measured after 1 hr by [125I]iodoantipyrine based method relative to vehicle control; format: ADME, organism-based; conditions: in vivo
Tubulin (Homo sapiens) [14] = biological target: T1, Tubulin (Homo sapiens); test: Time required for induction of microtubule dynamic instability in human MCF7 cells at IC50 for mitotic block measured after 20 hrs by immunofluorescence analysis; format: cell-based
Rattus norvegicus [15] = test: Effect on blood flow in rat kidney at 15 mg/kg, ip measured after 1 hr by [125I]iodoantipyrine based method relative to vehicle control; format: ADME, organism-based; conditions: in vivo
Rattus norvegicus [16] = test: Reduction in blood flow in rat brain at 15 mg/kg, ip measured after 24 hrs by [125I]iodoantipyrine based method relative to vehicle control; format: ADME, organism-based; conditions: in vivo
Tubulin (Homo sapiens) [17] = biological target: T1, Tubulin (Homo sapiens); test: Induction of microtubule instability in human MCF7 cells assessed as time spent for growth at IC25 for mitotic block measured after 20 hrs by immunofluorescence analysis; format: cell-based
[18] = Antifungal activity against Trichophyton mentagrophytes isolate 1 measured after 48 hrs by broth dilution method; format: functional
Tubulin (Homo sapiens) [19] = biological target: T1, Tubulin (Homo sapiens); test: Induction of microtubule instability in human MCF7 cells assessed as time spent for shortening at IC25 for mitotic block measured after 20 hrs by immunofluorescence analysis; format: cell-based
[20] = Toxicity in mouse allografted with mouse N202 tumor spheroids expressing H2B-GFP assessed as effect on tumor surrounding vasculature in the dorsal skin fold at 5 mg/kg, iv administered on day 12 as infusion for 2 mins measured on day 15; format: organism-based; conditions: in vivo
[21] = Antitumor activity against human DU145 cells xenografted in nude mouse assessed as tumor growth inhibition at 7.5 mg/kg, iv administered every third day for 5 days measured on day 28 relative to control; format: functional; conditions: DU-145, iv, read-out: TGI
Tubulin (Homo sapiens) [22] = biological target: T1, Tubulin (Homo sapiens); test: Induction of microtubule instability in human MCF7 cells assessed as time spent for attenuation at IC50 for mitotic block measured after 20 hrs by immunofluorescence analysis; format: cell-based
Trichophyton rubrum = test: Fungicidal activity against Trichophyton rubrum isolate 2 measured after 48 hrs by broth dilution method; format: functional; conditions: isolate 2, 48 h
Rattus norvegicus [23] = test: Effect on blood flow in rat muscle at 15 mg/kg, ip measured after 1 hr by [125I]iodoantipyrine based method relative to vehicle control; format: ADME, organism-based; conditions: in vivo
Jurkat = test: Induction of apoptosis in human Jurkat cells assessed as caspase3 activation; format: functional, cell-based
Tubulin (Homo sapiens) [24] = biological target: T1, Tubulin (Homo sapiens); test: Induction of microtubule instability in human MCF7 cells assessed as mean growth rate at IC50 for mitotic block measured after 20 hrs by immunofluorescence analysis; format: cell-based
Tubulin (Bos taurus) = Tubulin (Bos taurus) (UniProt Q6B856+Q862L2+Q862F3); conditions: 1.25 to 5 uM
[25] = Antimitotic activity in human MCF7 cells assessed as tubulin foci formation at mitotic block IC50 measured after 20 hrs by immunofluorescence analysis relative to control; format: functional
[26] = Toxicity in mouse allografted with mouse N202 tumor spheroids expressing H2B-GFP at 5 mg/kg, iv administered on day 12 as infusion for 2 mins; format: organism-based; conditions: in vivo
[27] = biological target: RAF proto-oncogene serine/threonine-protein kinase (Homo sapiens) (UniProt P04049); conditions: 10 uM
Description: Inhibition of human c-RAF at 10 uM in presence of ATP

MCF7 [28] = test: Antimitotic activity in human MCF7 cells assessed as mitotic index measured after 20 hrs by DAPI-staining based fluorescence microscopic analysis; format: functional, cell-based
Tubulin (Homo sapiens) [29] = biological target: T1, Tubulin (Homo sapiens); test: Time required for induction of microtubule dynamic instability in human MCF7 cells at IC25 for mitotic block measured after 20 hrs by immunofluorescence analysis; format: cell-based
[30] = biological target: Cyclin-dependent kinase 1/cyclin B1 (Homo sapiens) (UniProt P06493+P14635); conditions: 10 uM
Description: Inhibition of human CDK1/human cyclinB at 10 uM in presence of ATP

[31] = Antifungal activity against Epidermophyton floccosum isolate 1 measured after 48 hrs by broth dilution method; format: functional
[32] = Cytotoxicity against human CCD-27Sk cells assessed as reduction in cell viability measured after 48 hrs by resazurin dye-based fluorometric analysis
Tubulin (Homo sapiens) [33] = biological target: T1, Tubulin (Homo sapiens); test: Induction of microtubule dynamic instability in human MCF7 cells assessed as effect on spindle morphology at mitotic block IC25 measured after 20 hrs by immunofluorescence analysis; format: cell-based
Rattus norvegicus [34] = test: Effect on blood flow in rat gut at 15 mg/kg, ip measured after 1 hr by [125I]iodoantipyrine based method relative to vehicle control; format: ADME, organism-based; conditions: in vivo
[35] = biological target: Mitogen-activated protein kinase 10 (Rattus norvegicus) (UniProt P49187); conditions: 10 uM
Description: Inhibition of rat JNK3 at 10 uM in presence of ATP

Tubulin (Homo sapiens) [36] = biological target: T1, Tubulin (Homo sapiens); test: Induction of microtubule dynamic instability in human MCF7 cells at IC50 for mitotic block measured after 20 hrs by immunofluorescence analysis; format: cell-based

Cyclin-dependent kinase 1/cyclin B1 (Homo sapiens), sequence (P06493 whole entry, looked up): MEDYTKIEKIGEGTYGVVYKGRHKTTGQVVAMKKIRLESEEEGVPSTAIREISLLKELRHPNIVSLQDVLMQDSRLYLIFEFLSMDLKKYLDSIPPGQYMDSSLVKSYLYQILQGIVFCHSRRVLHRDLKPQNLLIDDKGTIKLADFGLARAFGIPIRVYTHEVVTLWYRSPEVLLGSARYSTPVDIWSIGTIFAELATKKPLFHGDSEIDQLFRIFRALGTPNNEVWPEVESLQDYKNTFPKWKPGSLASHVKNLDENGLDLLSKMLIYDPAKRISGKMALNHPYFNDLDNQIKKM
Cyclin-dependent kinase 1/cyclin B1 (Homo sapiens), sequence (P14635 whole entry, looked up): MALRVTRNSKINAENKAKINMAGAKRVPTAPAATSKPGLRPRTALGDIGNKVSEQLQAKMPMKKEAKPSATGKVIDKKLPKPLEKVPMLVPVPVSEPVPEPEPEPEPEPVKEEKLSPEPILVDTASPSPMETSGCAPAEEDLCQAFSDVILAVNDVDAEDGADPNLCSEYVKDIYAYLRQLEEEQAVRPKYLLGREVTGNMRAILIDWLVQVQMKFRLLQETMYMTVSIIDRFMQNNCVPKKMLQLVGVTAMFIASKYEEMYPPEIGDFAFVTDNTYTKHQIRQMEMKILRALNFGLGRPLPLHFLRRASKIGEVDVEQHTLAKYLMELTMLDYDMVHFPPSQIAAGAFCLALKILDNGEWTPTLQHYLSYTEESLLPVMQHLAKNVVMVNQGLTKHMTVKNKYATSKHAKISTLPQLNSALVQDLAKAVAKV
Mitogen-activated protein kinase 10 (Rattus norvegicus), sequence (P49187 whole entry): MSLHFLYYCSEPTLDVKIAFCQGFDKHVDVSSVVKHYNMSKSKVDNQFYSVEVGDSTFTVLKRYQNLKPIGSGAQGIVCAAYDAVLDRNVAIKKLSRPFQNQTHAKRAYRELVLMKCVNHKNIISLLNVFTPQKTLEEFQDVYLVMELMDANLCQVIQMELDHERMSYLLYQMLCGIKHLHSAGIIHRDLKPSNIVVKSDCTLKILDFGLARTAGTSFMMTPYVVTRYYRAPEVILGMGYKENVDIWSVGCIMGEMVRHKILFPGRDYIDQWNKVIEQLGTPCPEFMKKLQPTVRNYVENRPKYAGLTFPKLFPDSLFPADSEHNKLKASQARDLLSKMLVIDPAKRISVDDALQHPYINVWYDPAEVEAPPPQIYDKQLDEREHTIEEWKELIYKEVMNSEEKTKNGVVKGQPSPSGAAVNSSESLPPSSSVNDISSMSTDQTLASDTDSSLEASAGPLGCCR
RAF proto-oncogene serine/threonine-protein kinase (Homo sapiens), sequence (P04049 whole entry): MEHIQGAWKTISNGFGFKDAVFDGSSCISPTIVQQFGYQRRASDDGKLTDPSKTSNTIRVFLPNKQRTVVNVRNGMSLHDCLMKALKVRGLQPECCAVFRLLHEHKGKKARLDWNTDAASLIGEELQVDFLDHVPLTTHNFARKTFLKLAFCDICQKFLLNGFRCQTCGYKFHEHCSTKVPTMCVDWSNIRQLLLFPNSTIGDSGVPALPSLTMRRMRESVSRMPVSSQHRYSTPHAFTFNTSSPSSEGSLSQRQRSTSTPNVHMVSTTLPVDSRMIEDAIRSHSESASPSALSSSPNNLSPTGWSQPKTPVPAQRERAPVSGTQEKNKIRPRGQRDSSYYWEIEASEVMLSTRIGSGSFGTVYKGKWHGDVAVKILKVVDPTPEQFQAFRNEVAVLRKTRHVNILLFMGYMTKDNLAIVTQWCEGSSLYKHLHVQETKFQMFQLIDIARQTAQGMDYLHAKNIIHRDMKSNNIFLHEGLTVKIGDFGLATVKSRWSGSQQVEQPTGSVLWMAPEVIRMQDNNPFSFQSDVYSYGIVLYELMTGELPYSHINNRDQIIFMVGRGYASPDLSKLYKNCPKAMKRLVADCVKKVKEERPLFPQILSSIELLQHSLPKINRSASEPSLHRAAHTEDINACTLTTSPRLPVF

CC(C)(C)c1[nH]cnc1/C=c1\[nH]c(=O)/c(=C/c2ccccc2)[nH]c1=O [PLINABULIN]
Activity (Tubulin (Homo sapiens) [1]): Active
inhibition (Mus musculus): Active
EC50 [2]: 9.8 to 48 nM
Activity (HUVEC [3]): Active
Activity [4]: Non-Toxic
Activity (HUVEC [5]): Dose-dependent effect
Activity (HUVEC [6]): Active
Activity (Rattus norvegicus [7]): Toxic
TGI (MDA-MB-231): Active
Activity (Tubulin (Homo sapiens) [8]): 11.9 um/min
EC50 [9]: 1 to 13.4 nM
Activity (MCF7 [10]): Dose-dependent effect
Activity (Rattus norvegicus [11]): Toxic
MIC [12]: > 32 µg/mL
Activity (Rattus norvegicus [13]): Non-Toxic
TIME (Tubulin (Homo sapiens) [14]): 0.552 h
Activity (Rattus norvegicus [15]): Non-Toxic
Activity (Rattus norvegicus [16]): Toxic
Activity (Tubulin (Homo sapiens) [17]): 29.7%
TIME (Tubulin (Homo sapiens) [17]): 0.00517 h
MIC [18]: 2 µg/mL (≈ 5.95 µM)
Activity (Tubulin (Homo sapiens) [19]): 20.5%
TIME (Tubulin (Homo sapiens) [19]): 0.00333 h
Activity [20]: Non-Toxic
inhibition in vivo at 7.5 mg/kg [21]: 92.5%
TIME (Tubulin (Homo sapiens) [22]): 0.0102 h
MFC (Trichophyton rubrum): 0.125 µg/mL (≈ 0.372 µM)
Activity (Rattus norvegicus [23]): Non-Toxic
Activity (Jurkat): Dose-dependent effect
Activity (Tubulin (Homo sapiens) [24]): 10.6 um/min
inhibition (Tubulin (Bos taurus)): Active
Activity [25]: 73%
Activity [26]: Non-Toxic
inhibition [27]: > 50%
inhibition (MCF7 [28]): Dose-dependent effect
TIME (Tubulin (Homo sapiens) [29]): 0.728 h
inhibition [30]: > 50%
MIC [31]: > 16 µg/mL
EC50 [32]: 9.2 nM
Activity (Tubulin (Homo sapiens) [33]): Active
Activity (Rattus norvegicus [34]): Non-Toxic
inhibition [35]: > 50%
Activity (Tubulin (Homo sapiens) [36]): 10.6 um/min
